Experimental data as given in publication PMC12508063, “Chloroindazole based estrogen receptor β ligands with favorable pharmacokinetics promote functional remyelination and visual recovery” (Scientific Reports, 2025).
Where “and” joins values, the source holds several entries; their conditions need not be identical. Identical values can stand only once. Like-named read-outs stand apart in the source and are kept apart here.

Key:
[1] = system: CPZ demyelinating model of MS; experiment: Cuprizone (CPZ) diet demyelination/remyelination model, corpus callosum IHC; conditions: for CC1 + OLs compared to RM + V / CD45 immunoreactivity compared to 12wkDM / GFAP expression / myelin (MBP, PLP, and MOG staining) compared to RM + V: corpus callosum, 5 mg/kg/day, 3 wk
From the text: CPZ administration and treatment: Mice were fed a diet containing 0.2% bis(cyclohexanone)oxaldihydrazone (CPZ, Teklad Custom Diets, Madison, WI) for 12 weeks, as previously described[15],[27]. A subset of mice was perfused immediately following the 12-week CPZ regimen (12wkDM). […] These mice were perfused and their brains were processed for IHC.

EAE mice [2] = experiment: Electroretinogram (ERG) in EAE; assay type: in vivo, mouse; conditions: for ERG A-wave and B-wave amplitude: vs vehicle-treated mice
Method: (§1) Optical coherence tomography, electroretinograms and visual evoked potentials: OCT was acquired using the spectral domain‐OCT (R2200 840 nm HHP; Leica, Deerfield, IL) at peak EAE disease according to previously published methods[23],[28]. Each image was taken 3 times and averaged. Automatic segmentation of retinal layers was performed using Bioptigen Diver 3.0 software (Leica Microsystems, Deerfield, IL). ERG and VEPs were measured using the HMsERG200 ([…], Henderson, NV) as previously described[23],[28]. Animals were dark adapted for a minimum of 5 h prior to recording. During acquisition, animals were anesthetized with continuous 2% isoflurane. Traces were averaged and filtered for 60 Hz noise and a low-pass filter. MATLAB was used to adjust baselines and smoothed prior to measuring ERG and VEP amplitudes and latencies.
(§2) Electroretinograms and visual evoked potentials were measured using the HMsERG200 (OcuScience, Henderson, NV) as previously described (8, 9). Animals were dark adapted for a minimum of 5 hours prior to recording. During acquisition, animals were anesthetized with continuous 2% isoflurane. Traces were averaged and filtered for 60 Hz noise and a low-pass filter. MATLAB was used to adjust baselines and smoothed prior to measuring ERG and VEP amplitudes and latencies.

[3] = Stability in human plasma; assay type: in vitro ADME
[4] = target: T1, full length purified human ERα (Homo sapiens, UniProt P03372); experiment: competitive ligand binding assay, tritiated estradiol as tracer
T1 construct: full length purified human ERα and ERβ
T1 sequence (P03372 whole entry): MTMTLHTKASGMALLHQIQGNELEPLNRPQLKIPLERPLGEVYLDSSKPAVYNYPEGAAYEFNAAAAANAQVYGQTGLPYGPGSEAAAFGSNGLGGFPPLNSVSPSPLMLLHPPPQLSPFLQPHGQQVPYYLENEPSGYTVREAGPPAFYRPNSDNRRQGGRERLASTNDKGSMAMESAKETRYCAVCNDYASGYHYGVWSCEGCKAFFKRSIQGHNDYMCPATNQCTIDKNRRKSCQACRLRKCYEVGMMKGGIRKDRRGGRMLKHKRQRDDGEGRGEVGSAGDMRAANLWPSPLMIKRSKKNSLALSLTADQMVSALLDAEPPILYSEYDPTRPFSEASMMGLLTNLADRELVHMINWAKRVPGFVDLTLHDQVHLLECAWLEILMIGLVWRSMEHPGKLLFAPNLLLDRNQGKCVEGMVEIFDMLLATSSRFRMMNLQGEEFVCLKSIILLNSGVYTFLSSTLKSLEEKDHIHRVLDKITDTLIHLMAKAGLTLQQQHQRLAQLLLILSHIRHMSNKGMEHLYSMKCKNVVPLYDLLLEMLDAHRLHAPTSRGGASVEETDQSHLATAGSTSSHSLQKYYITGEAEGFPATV

EAE mice [5] = experiment: Visual evoked potential (VEP) in EAE; assay type: in vivo, mouse; conditions: vs vehicle-treated
Method: as §1, §2

[6] = system: splenocytes from EAE mice; experiment: Splenocyte cytokine/chemokine analysis ex vivo (MOG35-55 stimulation); assay type: in vivo, mouse; conditions: K102 5 or 30 mg/kg, K110 10 or 30 mg/kg; 40 dpi
Method: Splenocyte Isolation and Cytokine Analysis: Spleens were collected from mice prior to transcardial perfusion, and splenocytes were isolated, counted, and resuspended in RPMI medium. After 1 h incubation, cells were stimulated with 25 µg/mL MOG₃₅-₅₅, and supernatants were collected 48 h later. Cytokine and chemokine levels in the supernatants, including pro- and anti-inflammatory markers as well as chemokines were analyzed by The Cytokine Core (Indianapolis, IN).
In MS and EAE, peripherally activated immune cells release inflammatory cytokines and chemokines, triggering demyelination and axonal damage. To examine how different concentrations of K102 (5 mg/kg or 30 mg/kg) (Fig. 4A) and K110 (10 mg/kg or 30 mg/kg) (Fig. 4B) influence the peripheral immune response, splenocytes were isolated from EAE mice at 40 dpi. These splenocytes were then stimulated ex vivo with MOG35-55 and analyzed for cytokine and chemokine expression.
Splenocyte Isolation and Cytokine Analysis: Spleens were removed from mice prior to transcardial perfusion. After isolation, splenocytes were counted and resuspended in RPMI. Following incubation, splenocytes were stimulated with 25 µg/ml MOG35–55 and supernatants were collected 48 hours later. Levels of the following cytokines and chemokines present in culture supernatants were sent to The Cytokine Core (Indianapolis, IN); pro-inflammatory cytokines: IFNγ, Tumor necrosis factor (TNF)α, IL-1α, IL-1β, IL-3, IL-6, IL9, IL17, Vascular endothelial growth factor (VEGF), CCL5/RANTES and macrophage colony-stimulating factor (M-CSF); anti-inflammatory cytokines: IL-5 and IL-10; chemokines: CXCL10, and CXCL1 were determined.

[7] = target: T2, full length purified human ERβ (Homo sapiens, UniProt Q92731); experiment: competitive ligand binding assay, tritiated estradiol as tracer; conditions: for RBA β/α ratio: ERβ/ERα relative affinity ratio
T2 construct: full length purified human ERα and ERβ
T2 sequence (Q92731 whole entry): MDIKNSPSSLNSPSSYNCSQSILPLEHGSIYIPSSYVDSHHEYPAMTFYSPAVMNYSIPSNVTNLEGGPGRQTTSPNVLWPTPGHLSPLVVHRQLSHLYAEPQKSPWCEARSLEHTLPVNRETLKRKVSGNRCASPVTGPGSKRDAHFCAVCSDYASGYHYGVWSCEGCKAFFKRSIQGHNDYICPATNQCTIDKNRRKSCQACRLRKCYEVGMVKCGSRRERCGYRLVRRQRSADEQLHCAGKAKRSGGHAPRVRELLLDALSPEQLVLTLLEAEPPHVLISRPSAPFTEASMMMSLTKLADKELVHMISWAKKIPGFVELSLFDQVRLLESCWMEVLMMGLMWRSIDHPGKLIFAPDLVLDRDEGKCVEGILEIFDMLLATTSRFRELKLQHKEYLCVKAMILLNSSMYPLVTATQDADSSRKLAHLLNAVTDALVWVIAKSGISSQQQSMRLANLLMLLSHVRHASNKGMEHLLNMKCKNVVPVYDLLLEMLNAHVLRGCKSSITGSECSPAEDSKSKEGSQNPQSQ

[8] = for Kp uu Brain Mean / Kp uu Uterus Mean: 40 mg/kg PO; for K p,uu,brain Cmax: single dose oral PK in mouse at 40 mg/kg
Method: Plasma samples were 100% plasma or 5-fold diluted plasma; brain homogenate samples were diluted 5-fold with buffer, while uterus homogenate samples were initially diluted 5-fold and then further diluted to 20-fold. Equilibrium dialysis was performed in a 96-well plate system with wells containing 80 µL of buffer and 80 µL of the sample on opposite sides of the membrane. After incubation at 37°C for 5 hours with shaking at 180 rpm, aliquots were collected from both sides of the membrane for further analysis.
For plasma samples, 50 µL of sample was mixed with 50 µL of phosphate buffer, followed by addition of 300 µL quenching solution containing internal standards and DMSO. For 5-fold diluted plasma samples, 35 µL of sample was mixed with 35 µL of blank buffer, followed by 280 µL quenching solution. For tissue homogenate samples, 50 µL samples were mixed with 50 µL of phosphate buffer, followed by 200 µL quenching solution. All samples were vortexed for 1 minute, and centrifuged at 4,000 rpm for 15 minutes, and the supernatant collected for LC-MS/MS analysis, which was performed using an API 5500 mass spectrometer with an ACQUITY UPLC BEH 1.7 μm C18 100 Å column (2.1 mm * 50 mm) and ACE Excel 5 C4 (2.1 * 50 mm) column. Mobile phases were 0.1% formic acid in water or 5 mM NH4OAc with 0.05% formic acid in water (A) and 0.1% formic acid in acetonitrile (B). Run times were 8 minutes for plasma samples and 5 minutes for other sample types. The mass spectrometer was operated in positive electrospray ionization mode.
Free fraction (fu) and recovery were calculated using specific equations for each sample type. For plasma samples, fu (%) was calculated as (Cbuffer / Cplasma) * 100%, and recovery (%) as ((Cplasma + Cbuffer) / T0) * 100%. For 5-fold diluted plasma samples, fu,20% (%) was calculated as (Cbuffer / Cplasma) * 100%, and fu,100% (%) as fu,20% / (5 - 4 * fu,20%) * 100%. Similar equations were used for uterus and brain samples, accounting for their respective dilution factors. These calculations allowed for the determination of the free fraction of the test compound in various tissue compartments and the assessment of recovery rates.

[9] = system: co-cultures of primary cortical neurons and OPCs; experiment: Axon myelination in co-cultures of primary cortical neurons and OPCs; assay type: cell-based, mouse; conditions: K102, K110 10 nM; Clemastine, Bazedoxifene 500 nM; 5 days
From the text: Mouse and Human primary cell cultures: Primary OPC/OL culture were isolated from the cortices of postnatal day 0–1 C57BL/6J mice of both sexes, using established protocols[11],[20],[21]. Mouse OPC and Neuronal Co-cultures: Primary neuronal cultures were established in Neurobasal medium with B27 and plated on poly-L-lysine-coated coverslips. After 12 days, OPCs were isolated, counted, and added to neuronal cultures and media was replaced with neuronal and proliferation media for 3 days, then switched to maturation media that maintained both neurons and OLs. Human iPSC-derived OPCs (Tempo’s iOligo™) were expanded, cryopreserved, and later plated on Matrigel-coated coverslips. After 3 days in growth medium, cells were treated for 3 weeks with T3 containing maturation medium. Differentiation into myelin-producing OLs was assessed using O4 (OL surface marker on pre-OLs) and myelin basic protein (MBP) immunohistochemistry. […]
Immunocytochemistry and Image Analysis of cell cultures: After treatment, cells were fixed and stained for MBP and DAPI. […] Cell densities were quantified using ImageJ and normalized to control conditions. MBP-positive cells, their process extensions, and highly branched OLs were counted to assess differentiation. Co-culture images were analyzed for MBP and β3-tubulin colocalization using JACoP[22] in ImageJ, with results validated by manual quantification. […]

EAE mice [10] = experiment: Rotarod motor performance in EAE; assay type: in vivo, mouse; conditions: 5 mg/kg SC
Method: EAE induction and treatment: EAE was induced in 8–10-week-old wild-type C57BL/6J mice using MOG₃₅-₅₅ peptide[11],[14],[23]–[25]. Mice were scored daily using a standard clinical scale (0–5) and tested for their ability to stay on a rotarod. […] At peak disease (18–22 days post-immunization), animals were grouped into EAE+Vehicle, EAE+K102, and EAE+K110.
Rotarod Motor Performance: Mice cages were moved to the behavioral room 1 hour prior to testing. Motor performance was assessed using the Rotarod apparatus (Med Associates, Inc., St. Albans, VT) as previously performed with modifications(5, 6). Briefly, mice were placed on the rotating horizontal rod set to a speed of 3 – 30 rpm for a maximum of 300 seconds. The amount of time the mouse was able to walk on the accelerating rod was recorded. Each mouse was tested in three trials separated by 15 minute intertrial intervals. The average of the three trials was reported as a single value for each mouse. Statistical analysis was performed in GraphPad Prism 10 software using Mann-Whitney test.

[11] = Uterine weight and body weight in EAE mice; conditions: for Body weight / Uterine weight / Uterine weight/body weight ratio: EAE mice; for uterine weight relative to body weight: normal or EAE intact female mice
From the text: The animals from Hook EAE experiment Figure 3Bii were used. […] (S6ii) The weight of the uteri removed from mice relative to total body weight along with the raw uterine weight and body weight at the end of this experiment is plotted.

CYP3A4 = CYP3A4 (Homo sapiens, UniProt P08684); experiment: CYP inhibition (midazolam and testosterone substrates); conditions: test compounds at 10 μM; for CYP Inhibition Percentage CYP3A4-M: substrate Midazolam
CYP3A4, sequence (P08684 whole entry): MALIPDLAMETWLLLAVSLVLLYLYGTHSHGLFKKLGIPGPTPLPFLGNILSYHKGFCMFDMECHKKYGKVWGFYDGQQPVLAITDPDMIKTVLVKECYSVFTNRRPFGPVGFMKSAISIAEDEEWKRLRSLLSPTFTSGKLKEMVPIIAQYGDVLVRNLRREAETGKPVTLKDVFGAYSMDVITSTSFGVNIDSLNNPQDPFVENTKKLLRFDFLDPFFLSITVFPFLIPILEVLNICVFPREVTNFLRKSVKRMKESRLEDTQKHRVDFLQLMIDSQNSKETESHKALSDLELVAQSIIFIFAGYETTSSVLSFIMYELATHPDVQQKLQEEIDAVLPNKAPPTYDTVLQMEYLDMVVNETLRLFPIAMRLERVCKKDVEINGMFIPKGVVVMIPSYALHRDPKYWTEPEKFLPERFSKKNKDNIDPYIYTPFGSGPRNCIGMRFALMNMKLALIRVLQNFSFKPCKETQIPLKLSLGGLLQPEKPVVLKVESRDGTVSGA

primary mouse OPCs = experiment: OL differentiation in primary mouse OPC culture (MBP, DAPI); assay type: cell-based; conditions: for MBP+ OLs vs vehicle-treated wells: 10 nM; for number of MBP+ cells vs vehicle: 10 nM and 100 nM, concentration-dependent
From the text: Mouse and Human primary cell cultures: Primary OPC/OL culture were isolated from the cortices of postnatal day 0–1 C57BL/6J mice of both sexes, using established protocols[11],[20],[21]. Mouse OPC and Neuronal Co-cultures: Primary neuronal cultures were established in Neurobasal medium with B27 and plated on poly-L-lysine-coated coverslips. After 12 days, OPCs were isolated, counted, and added to neuronal cultures and media was replaced with neuronal and proliferation media for 3 days, then switched to maturation media that maintained both neurons and OLs. Human iPSC-derived OPCs (Tempo’s iOligo™) were expanded, cryopreserved, and later plated on Matrigel-coated coverslips. After 3 days in growth medium, cells were treated for 3 weeks with T3 containing maturation medium. Differentiation into myelin-producing OLs was assessed using O4 (OL surface marker on pre-OLs) and myelin basic protein (MBP) immunohistochemistry. In all conditions compounds or vehicle were added to culture during differentiation for either 5 days (mouse) or 18 days (human).
Immunocytochemistry and Image Analysis of cell cultures: After treatment, cells were fixed and stained for MBP and DAPI. Coverslips were imaged using a confocal microscope at 10× and 40× objectives. Cell densities were quantified using ImageJ and normalized to control conditions. MBP-positive cells, their process extensions, and highly branched OLs were counted to assess differentiation. Co-culture images were analyzed for MBP and β3-tubulin colocalization using JACoP[22] in ImageJ, with results validated by manual quantification.
Primary OL Progenitor cells (OPC) and Neuronal Cultures: OPC and cortical neuronal cultures were prepared from the cortices of postnatal day P0-P1 C57BL/6J mice of both sexes, following established protocols (1, 2);(3). The single-cell suspension was divided into two tubes. One tube was treated with warm Neuronal Basal media, counted, and plated onto poly-L-lysine (PLL)-coated glass coverslips. The second tube was resuspended in glial growth medium, composed of DMEM-F12 supplemented with 10% fetal bovine serum, and placed in a PLL-coated culture flask for 8–10 days until confluent. […]
Quantification of Mature OLs and Co-culture axon myelination: At the conclusion of the treatment period, cells were fixed and subjected to immunocytochemistry to evaluate myelin basic protein (MBP) expression, co-stained with the nuclear marker DAPI (shown in blue). […] Cell counting was performed using the ImageJ multipoint tool, and cell densities were calculated by dividing the counts by the image area (mm²). […]
To assess OL differentiation, the number of MBP-positive (MBP+) cells and process extensions exceeding the diameter of the cell body were quantified.

[12] = relative binding affinity, estradiol = 100

In the case of `Cc1cc(O)ccc1-n1nc2ccc(O)cc2c1Cl` [Compound K102, IndCl-o-Me], the “RM/N (remyelination with cpd. vs. normal)” value ([1]; PO) is reported as 76%, the “RM/RM-V (remyelination with cpd. vs. spontaneous remyelination without cpd)” value ([1]; PO) is reported as 121% and the “RM/N (remyelination with cpd. vs. normal)” value ([1]; SC, 5 mg/kg) is reported as 94%. The “RM/RM-V (remyelination with cpd. vs. spontaneous remyelination without cpd)” value ([1]; SC, 5 mg/kg) was 149%, the “CC1 + OLs compared to RM + V” value [1] was “further increase” and the “CD45 immunoreactivity compared to 12wkDM” value [1] was “small but significant decrease”. The GFAP expression [1] was “remained unchanged”, the “myelin (MBP, PLP, and MOG staining) compared to RM + V” value [1] was “significant increase” and the “ERG B-wave latency” value (EAE mice [2]) was “improved”. The “ERG A-wave and B-wave amplitude” value (EAE mice [2]) was “significant increase”, the “% Remaining at 6 hr in Human Plasma” value [3] was 89.39% and the “RBA ERα” value [4] was 0.37. The “VEP P1 (or N2) amplitude” value (EAE mice [5]) was “significant increase”, the “VEP P1 latency” value (EAE mice [5]) was “reduction” and the CXCL1 production [6] was “did not affect”. For the same molecule, the “CXCL10 levels compared to vehicle” value [6] was “reduced”, the “certain anti-inflammatory cytokines compared to vehicle” value [6] was “significantly lower” and the “pro-inflammatory cytokine levels compared to vehicle” value [6] was “reduced”. For the same molecule, the “RBA ERβ” value [7] was 24.0, the “RBA β/α ratio” value [7] was 65 and the “Kp uu Brain Mean” value ([8]; 0.5 hr) was 0.581. For the same molecule, the “Kp uu Uterus Mean” value ([8]; 0.5 hr) was 0.269, the “Kp uu Brain Mean” value ([8]; 2.0 hr) was 0.333 and the “Kp uu Uterus Mean” value ([8]; 2.0 hr) was 0.380. The “Kp uu Brain Mean” value ([8]; 4.0 hr) was 0.629, the “Kp uu Uterus Mean” value ([8]; 4.0 hr) was 8.681 and the “Kp uu Brain Mean” value ([8]; 8.0 hr) was 0.325. The “Kp uu Uterus Mean” value ([8]; 8.0 hr) was 3.086, the “K p,uu,brain Cmax” value [8] was 0.63 and the “OL processes wrapping axons” value [9] was “significant increase”. The “ability to remain on the rotarod” value (EAE mice [10]) was “non-significant improvement”, the Body weight ([11]; group average) was 20.124 and the Uterine weight ([11]; group average) was 0.055. The “Uterine weight/body weight ratio” value ([11]; group average) was 0.275, the Body weight ([11]; individual animals) was 19.160 and 19.460 and 20.910 and 21.110 and 19.980 and the Uterine weight ([11]; individual animals) was 0.0650 and 0.0330 and 0.0810 and 0.0490. The “Uterine weight/body weight ratio” value ([11]; individual animals) was 0.3392 and 0.1696 and 0.3874 and 0.2321 and 0.2452, the “uterine weight relative to body weight” value [11] was “no increase” and the “CYP Inhibition Percentage CYP3A4-M” value (CYP3A4) was 50.95%. The “CYP Inhibition Percentage CYP3A4-T” value (CYP3A4; substrate Testosterone, 10 µM) was 77% and 76.99%, the “MBP+ OLs vs vehicle-treated wells” value (primary mouse OPCs) was “significant increase” and the “number of MBP+ cells vs vehicle” value (primary mouse OPCs) was “significantly increased”.

For `Oc1ccc(-n2nc3ccc(O)cc3c2Cl)c(O)c1` [Compound K110, IndCl-o-OH], the “RM/N (remyelination with cpd. vs. normal)” value ([1]; PO) was 100%, the “RM/RM-V (remyelination with cpd. vs. spontaneous remyelination without cpd)” value ([1]; PO) was 127% and the “RM/N (remyelination with cpd. vs. normal)” value ([1]; SC, 5 mg/kg) was 84%. For the same molecule, the “RM/RM-V (remyelination with cpd. vs. spontaneous remyelination without cpd)” value ([1]; SC, 5 mg/kg) was 133%, the “CC1 + OLs compared to RM + V” value [1] was “further increase” and the “CD45 immunoreactivity compared to 12wkDM” value [1] was “small but significant decrease”. The GFAP expression [1] was “remained unchanged”, the “myelin (MBP, PLP, and MOG staining) compared to RM + V” value [1] was “significant increase” and the “ERG B-wave latency” value (EAE mice [2]) was “improved”. The “ERG A-wave and B-wave amplitude” value (EAE mice [2]) was “significant increase”, the “% Remaining at 6 hr in Human Plasma” value [3] was 105.99% and the “RBA ERα” value [4, 12] was 0.09. For the same molecule, the “VEP P1 (or N2) amplitude” value (EAE mice [5]) was “did not affect”, the “VEP P1 latency” value (EAE mice [5]) was “did reduce” and the CXCL1 production [6] was “did not affect”. The “CXCL10 levels compared to vehicle” value [6] was “reduced”, the “certain anti-inflammatory cytokines compared to vehicle” value [6] was “significantly lower” and the “pro-inflammatory cytokine levels compared to vehicle” value [6] was “reduced”. For the same molecule, the “RBA β/α ratio” value [7] was 48, the “RBA ERβ” value [7, 12] was 4.35 and the “Kp uu Brain Mean” value ([8]; 0.5 hr) was 0.232. For the same molecule, the “Kp uu Uterus Mean” value ([8]; 0.5 hr) was 0.516, the “Kp uu Brain Mean” value ([8]; 2.0 hr) was 0.802 and the “Kp uu Uterus Mean” value ([8]; 2.0 hr) was 10.651. The “Kp uu Brain Mean” value ([8]; 4.0 hr) was 0.280, the “Kp uu Uterus Mean” value ([8]; 4.0 hr) was 45.849 and the “Kp uu Brain Mean” value ([8]; 8.0 hr) was 0.294. For the same molecule, the “Kp uu Uterus Mean” value ([8]; 8.0 hr) was 6.280, the “K p,uu,brain Cmax” value ([8]; 40 mg/kg) was 0.8 and the “OL processes wrapping axons” value [9] was “significant increase”. For the same molecule, the “ability to remain on the rotarod” value (EAE mice [10]) was “non-significant improvement”, the Body weight ([11]; group average) was 15.27 and the Uterine weight ([11]; group average) was 0.04. The “Uterine weight/body weight ratio” value ([11]; group average) was 0.26, the Body weight ([11]; individual animals) was 14.58 and 15.48 and 15.50 and 14.68 and 16.10 and the Uterine weight ([11]; individual animals) was 0.044 and 0.027 and 0.034 and 0.056. The “Uterine weight/body weight ratio” value ([11]; individual animals) was 0.3018 and 0.1744 and 0.2194 and 0.3815 and 0.2112, the “uterine weight relative to body weight” value [11] was “no increase” and the “CYP Inhibition Percentage CYP3A4-M” value (CYP3A4) was 13.95%. The “MBP+ OLs vs vehicle-treated wells” value (primary mouse OPCs) was “significant increase” and the “number of MBP+ cells vs vehicle” value (primary mouse OPCs) was “significantly increased”.
